Reference: US20240165056A1, “USE OF TAMOXIFEN AND RELATED COMPOUNDS TO REDUCE BREAST IMPLANT CAPSULE FORMATION AND CAPSULAR CONTRACTURE” (Ohio State Innovation Foundation, priority 2021, published 2024)

Key:
Format in all cases: in vivo, mice
[1] = Mouse body weight during tamoxifen treatment in silicone implant model; details: 75 mg/kg tamoxifen citrate i.p. daily
Protocol: (§1) Eight-week-old C57BL/6 or Beige (C57BL/6J-Lyst^bg-J/J) female mice (Jackson Labs, Bar Harbor, ME, USA) (N=10/group) were treated with daily tamoxifen or vehicle injections into the intraperitoneal cavity 1 week before surgery. Tamoxifen injections consisted of 75 mg/kg tamoxifen citrate (Sigma, St. Louis MO, USA) in peanut oil (Sigma, St Louis MO, USA) with 10% ethanol (Sigma, St. Louis MO, USA) to promote dissolution of tamoxifen, while control injections consisted of only peanut oil and ethanol. Daily injections continued until the day of explantation, two weeks after implantation.
(§2) Mice were anesthetized with a standard ketamine/xylazine cocktail. Fur was clipped and skin was prepped with betadine followed by alcohol pads. Silicone prostheses were implanted in the submammary plane, bilaterally, giving a total of 20 implants per experimental group (FIG. 1B). Skin incisions were re-approximated with 6-0 nylon suture (FIG. 1C).
(§3) After 2 weeks, mice were euthanized and the silicone prostheses were removed en bloc with all surrounding tissue, including the overlying skin for orientation (FIG. 1D). […] These samples were excluded from further analysis owing to the potential confounding nature of bacterial contamination on capsule formation.
(§4) All statistical analysis was performed in Prism 8.0 (GraphPad, San Diego, CA, USA). Data was evaluated for outliers using the Grubb's test. Control and tamoxifen-treated groups were compared with unpaired t-tests, except in cases where the equal variance assumption was violated; when the nonparametric Mann-Whitney test was utilized. A p-value of 0.05 was considered significant.

[2] = test system: fibrous capsule around silicone implants; test: Silicone breast implant capsule formation in mouse model (H&E, Picro-Sirius Red histology)
Protocol: as §1, §2, §3
Explanted silicone pieces and surrounding capsules were fixed overnight in formaldehyde at 4° C. and transitioned to 70% ethanol. Samples were then paraffin embedded and sectioned at 4 μm. Samples were stained with H&E (FIG. 1E) or Picro-Sirius Red. Immunohistochemistry sections were deparaffinized, rehydrated and blocked for endogenous peroxidase activity (3% H2O2 in H2O) and nonspecific background staining (3% normal goat serum in Background Sniper, BioCare Medical, CA, USA). Antigen retrieval was performed with citrate buffer (pH 6.0) or Tris-EDTA (pH 9.0) in a pressure cooker for 10 minutes and slides were incubated for 30 minutes at room temperature with primary antibodies. Primary antibodies (all from Abcam, Cambridge, UK) included α-SMA (ab124964), CD31 (ab28364), CD68 (ab125212), iNOS (ab15323), CD163 (ab182422), Ki67 (ab15580), ER-α (ab271827), and ER-β (ab3576). Primary antibody binding was detected by subsequent incubation with species appropriate biotinylated IgG (Vector Laboratories, CA, USA), followed by streptavidin-horse radish peroxidase (Vector Laboratories, CA, USA) and chromogenic development with 3,3-diaminobenzidine (Vector Laboratories, CA, USA). Tissue sections were counterstained with Gill's hematoxylin (Vector Laboratories, CA, USA), slides were dehydrated and a cover slip was placed. Slides were imaged on a Zeiss Axio Observer Z1 inverted microscope (Zeiss, Germany) and quantified using ImageJ (NIH, USA).
Histology was quantified from H&E slides within the fibrous capsule on the side oriented with overlying skin to maintain consistency and remove potential variability by dissection at explantation.
as §4

[3] = test system: Estrogen receptor α (ER-α); test: Immunohistochemistry of implant capsule: ER-α; details: 75 mg/kg i.p. daily; explant at 2 weeks
Protocol: as §1
(§5) Mice were anesthetized with a standard ketamine/xylazine cocktail. […]
(§6) Explanted silicone pieces and surrounding capsules were fixed overnight in formaldehyde at 4° C. and transitioned to 70% ethanol. […] Primary antibody binding was detected by subsequent incubation with species appropriate biotinylated IgG (Vector Laboratories, CA, USA), followed by streptavidin-horse radish peroxidase (Vector Laboratories, CA, USA) and chromogenic development with 3,3-diaminobenzidine (Vector Laboratories, CA, USA). […] Slides were imaged on a Zeiss Axio Observer Z1 inverted microscope (Zeiss, Germany) and quantified using ImageJ (NIH, USA). […]
(§7) All statistical analysis was performed in Prism 8.0 (GraphPad, San Diego, CA, USA). Data was evaluated for outliers using the Grubb's test. […]

[4] = test system: estrogen receptor β (ER-β); test: Immunohistochemistry of implant capsule: ER-β; details: 75 mg/kg i.p. daily; explant at 2 weeks
Protocol: as §1, §5, §6, §7

Ki-67 = test: Immunohistochemistry of implant capsule: Ki-67 cellular proliferation; details: 75 mg/kg i.p. daily; explant at 2 weeks
Protocol: as §1, §5, §6, §7

[5] = test system: Alpha smooth muscle actin (αSMA); test: Immunohistochemistry of implant capsule: αSMA myofibroblasts; details: 75 mg/kg i.p. daily; explant at 2 weeks
Protocol: as §1, §5, §6, §7

CD31 = test: Immunohistochemistry of implant capsule: CD31 neovascularization; details: 75 mg/kg i.p. daily; explant at 2 weeks
Protocol: as §1, §5, §6, §7

CD68 = test: Immunohistochemistry of implant capsule: CD68 macrophage infiltration; details: 75 mg/kg i.p. daily; explant at 2 weeks
Protocol: as §1, §5, §6, §7

iNOS = test: Immunohistochemistry of implant capsule: iNOS pro-inflammatory macrophages; details: 75 mg/kg i.p. daily; explant at 2 weeks
Protocol: as §1, §5, §6, §7

CD163 = test: Immunohistochemistry of implant capsule: CD163 anti-inflammatory macrophages; details: 75 mg/kg i.p. daily; explant at 2 weeks
Protocol: as §1, §5, §6, §7

[6] = Picro-Sirius Red, 75 mg/kg i.p. daily, explant at 2 weeks

CC/C(=C(\c1ccccc1)c1ccc(OCCN(C)C)cc1)c1ccccc1 [tamoxifen]
body weight at the date of surgery ([1]; one week after start of injections): 16.2±1.6 gram body weight
body weight at the start of the injection period ([1]; start of injections, 1 week before surgery): 17.6±1.2 gram body weight
body weight at the two-week explant date ([1]; two weeks after implantation): 16.6±1.0 gram body weight
cellularity of the capsules ([2]; 75 mg/kg i.p. daily, explant at 2 weeks): 3624±608 cells/mm^2
capsule thickness ([2]; 75 mg/kg tamoxifen citrate i.p. daily, explant 2 weeks after implantation): 132±49 μm
area percent of collagen [2, 6]: 36.2±3.1%
total collagen surrounding the implants [2, 6]: 43598±10044 μm^2
reduction in capsule thickness ([2]; tamoxifen-treated vs control, explant at 2 weeks): 59%
ER-α expression as a fraction of total cells [3]: 31.0±6.3%
ER-α total cells/mm of capsular tissue [3]: 107.0±39.8 cells/mm
ER-β expression, cellular fraction [4]: 36.8±7.5%
ER-β total cells/mm [4]: 106.2±69.2 cells/mm
Ki-67+ cells/mm (Ki-67): 324±125 cells/mm
cellular fraction of Ki-67+ cells (Ki-67): 62.4±16.9%
linear density of αSMA+ cells [5]: 295±121 cells/mm
percentage of total cells αSMA+ [5]: 47.9±9.5%
CD31+ vessels per mm^2 (CD31): 106.3±51.8 vessels/mm^2
total CD31+ vessels (CD31): 15.9±9.7 vessels/mm
cellular fraction of CD68 (CD68): 55.9±16.0%
linear density of CD68+ cells (CD68): 303.3±136.5 cells/mm
cellular fraction of iNOS (iNOS): 60.6±12.6%
total number of cells with positivity for iNOS (iNOS): 290.6±104.2 cells/mm
cellular fraction of CD163 (CD163): 29.1±8.4%
total number of cells with positivity for CD163 (CD163): 94.1±45.9 cells/mm
